Assay results taken from US8334235B2, “Thiadiazolyloxyphenylamidines and use thereof as fungicides” (Bayer Cropscience AG, priority 2008, dated 2012).

What was measured:
Format in all cases: in vivo
[1] = test system: bean rust pathogen Uromyces appendiculatus; assay: Uromyces test (beans)/protective; conditions: 240 h, 100 ppm active substance, protective, evaluation 10 days after inoculation, read-out: degree of effectiveness
Description: (§1) • Solvents: 24.5 parts by weight of acetone • 24.5 parts by weight of dimethylacetamide • Emulsifier: 1 part by weight of alkylaryl polyglycol ether (polyoxyethylene (16) tristearylphenyl ether)
To prepare a suitable active substance composition, 1 part by weight of active substance is mixed with the given amounts of solvents and emulsifier and the concentrate is diluted to the desired concentration using water.
For the testing of protective effectiveness, young plants are sprayed with the active substance composition in the application rate given. After the spray coating has been dried on, the plants are inoculated with an aqueous suspension of the spores of the bean rust pathogen Uromyces appendiculatus and then remain in an incubation chamber at approximately 20° C. and 100% relative humidity for 1 day.
The plants are then placed in a greenhouse at approximately 21° C. and a relative humidity of approximately 90%.
Evaluation is carried out 10 days after the inoculation. In this connection, 0% means a degree of effectiveness corresponding to that of the control, while a degree of effectiveness of 100% means that no infestation is observed.

Alternaria solani = assay: Alternaria test (tomato)/protective; conditions: 72 h, 100 ppm active substance, protective, evaluation 3 days after inoculation, read-out: degree of effectiveness
Description: as §1
To prepare a suitable active substance composition, 1 part by weight of substance is mixed with the given amounts of solvents and emulsifier and the concentrate is diluted to the desired concentration using water.
For the testing of protective effectiveness, young plants are sprayed with the active substance composition in the application rate given. After the spray coating has been dried on, the plants are inoculated with an aqueous suspension of spores of Alternaria solani. The plants are then placed in an incubation chamber at approximately 20° C. and 100% relative humidity.
Evaluation is carried out 3 days after the inoculation. In this connection, 0% means a degree of effectiveness corresponding to that of the control, while a degree of effectiveness of 100% means that no infestation is observed.

Puccinia triticina [2] = assay: Puccinia triticina test (wheat)/curative; conditions: 192 h, 500 ppm active substance, curative, evaluation 8 days after inoculation, read-out: degree of effectiveness
Description: (§2) • Solvent: 50 parts by weight of N,N-dimethylacetamide • Emulsifier: 1 part by weight of alkylaryl polyglycol ether (polyoxyethylene (16) tristearylphenyl ether)
(§3) To prepare a suitable active substance composition, 1 part by weight of active substance is mixed with the given amounts of solvent and emulsifier and the concentrate is diluted to the desired concentration using water.
For the testing of curative effectiveness, young plants are sprayed with a suspension of spores of Puccinia triticina. The plants remain in an incubation chamber at 20° C. and 100% relative humidity for 48 hours and are then sprayed with the active substance composition in the application rate given. The plants are placed in a greenhouse at a temperature of approximately 20° C. and a relative humidity of approximately 80%.
(§4) Evaluation is carried out 8 days after the inoculation. In this connection, 0% means a degree of effectiveness corresponding to that of the control, while a degree of effectiveness of 100% means that no infestation is observed.

Sphaerotheca fuliginea = assay: Sphaerotheca test (cucumber)/protective; conditions: Podosphaera fuliginea, 168 h, 500 ppm active substance, protective, evaluation 7 days after inoculation, read-out: degree of effectiveness
Description: • Solvent: 49 parts by weight of N,N-dimethylformamide • Emulsifier: 1 part by weight of alkylaryl polyglycol ether (polyoxyethylene (16) tristearylphenyl ether) To prepare a suitable active substance composition, 1 part by weight of active substance is mixed with the given amounts of solvents and emulsifier and the concentrate is diluted to the desired concentration using water. For the testing of protective effectiveness, young cucumber plants are sprayed with the active substance composition in the application rate given. One day after treatment, the plants are inoculated with a suspension of spores of Sphaerotheca fuliginea. The plants are then placed in a greenhouse at 70% relative humidity and a temperature of 23° C. Evaluation is carried out 7 days after the inoculation. In this connection, 0% means a degree of effectiveness corresponding to that of the control, while a degree of effectiveness of 100% means that no infestation is observed.

Puccinia triticina [3] = assay: Puccinia triticina test (wheat)/protective; conditions: 192 h, 500 ppm active substance, protective, evaluation 8 days after inoculation, read-out: degree of effectiveness
Description: as §2, §3
For the testing of protective effectiveness, young plants are sprayed with the active substance composition in the application rate given. After the spray coating has been dried on, the plants are sprayed with a suspension of spores of Puccinia triticina. The plants remain in an incubation chamber at 20° C. and 100% relative humidity for 48 hours. The plants are placed in a greenhouse at a temperature of approximately 20° C. and a relative humidity of approximately 80%.
as §4

CCN(C)/C=N/c1cc(C)c(Oc2nc(C(C)(C)C)ns2)cc1Cl [Compound 1, N′-{4-[(3-(tert-butyl)-1,2,4-thiadiazol-5-yl)oxy]-2-chloro-5-methylphenyl}-N-ethyl-N-methylimidoformamide]
≥ 70%: pest or weed control at 100 ppm [1] | pest or weed control at 100 ppm (Alternaria solani) | pest or weed control at 500 ppm (Puccinia triticina [2]) | pest or weed control at 500 ppm (Sphaerotheca fuliginea) | pest or weed control at 500 ppm (Puccinia triticina [3])

CCN(C)/C=N/c1cc(C)c(Oc2nc(C(C)(C)C)ns2)cc1Br [Compound 2, N′-{2-bromo-4-[(3-(tert-butyl)-1,2,4-thiadiazol-5-yl)oxy]-5-methylphenyl}-N-ethyl-N-methylimidoformamide]
≥ 70%: pest or weed control at 100 ppm [1] | pest or weed control at 100 ppm (Alternaria solani) | pest or weed control at 500 ppm (Puccinia triticina [2]) | pest or weed control at 500 ppm (Sphaerotheca fuliginea) | pest or weed control at 500 ppm (Puccinia triticina [3])

CCN(C)/C=N/c1cc(C)c(Oc2nc(C(C)c3ccc(Cl)cc3)ns2)cc1Cl (stereo not shown) [Compound 6]
≥ 70%: pest or weed control at 100 ppm [1] | pest or weed control at 500 ppm (Puccinia triticina [2]) | pest or weed control at 500 ppm (Sphaerotheca fuliginea) | pest or weed control at 500 ppm (Puccinia triticina [3])

Cc1cc(N=CN(C)C(C)C)c(Cl)cc1Oc1nc(C(C)c2ccc(Cl)cc2)ns1 (stereo not shown) [Compound 8, N′-[2-chloro-4-({3-[1-(4-chlorophenyl)ethyl]-1,2,4-thiadiazol-5-yl}oxy)-5-methylphenyl]-N-methyl-N-(propan-2-yl)imidoformamide]
≥ 70%: pest or weed control at 100 ppm [1] | pest or weed control at 500 ppm (Sphaerotheca fuliginea)

CCN(C)/C=N/c1cc(C)c(Oc2nc(C(C)(C)c3ccc(Cl)cc3)ns2)cc1Cl [Compound 11, N′-[2-chloro-4-({3-[2-(4-chlorophenyl)propan-2-yl]-1,2,4-thiadiazol-5-yl}oxy)-5-methylphenyl]-N-ethyl-N-methylimidoformamide]
≥ 70%: pest or weed control at 100 ppm (Alternaria solani) | pest or weed control at 500 ppm (Puccinia triticina [2]) | pest or weed control at 500 ppm (Sphaerotheca fuliginea) | pest or weed control at 500 ppm (Puccinia triticina [3])

Cc1cc(N=CN(C)C(C)C)c(Cl)cc1Oc1nc(C(C)(C)c2ccc(Cl)cc2)ns1 [Compound 13, N′-[2-chloro-4-({3-[2-(4-chlorophenyl)propan-2-yl]-1,2,4-thiadiazol-5-yl}oxy)-5-methylphenyl]-N-methyl-N-(propan-2-yl)imidoformamide]
≥ 70%: pest or weed control at 100 ppm (Alternaria solani) | pest or weed control at 500 ppm (Puccinia triticina [2]) | pest or weed control at 500 ppm (Sphaerotheca fuliginea) | pest or weed control at 500 ppm (Puccinia triticina [3])

CCN(C)/C=N/c1cc(C)c(Oc2nc(Cc3ccccc3)ns2)cc1Cl [Compound 14, N′-{4-[(3-benzyl-1,2,4-thiadiazol-5-yl)oxy]-2-chloro-5-methylphenyl}-N-ethyl-N-methylimidoformamide]
≥ 70%: pest or weed control at 100 ppm [1] | pest or weed control at 100 ppm (Alternaria solani) | pest or weed control at 500 ppm (Puccinia triticina [2]) | pest or weed control at 500 ppm (Sphaerotheca fuliginea) | pest or weed control at 500 ppm (Puccinia triticina [3])

CCN(C)C=Nc1cc(C)c(Oc2nc(/C=C/c3ccc(F)cc3)ns2)cc1Cl [Compound 15, N′-[2-chloro-4-({3-[(E)-2-(4-fluorophenyl)ethenyl]-1,2,4-thiadiazol-5-yl}oxy)-5-methylphenyl]-N-ethyl-N-methylimidoformamide]
≥ 70%: pest or weed control at 100 ppm [1] | pest or weed control at 100 ppm (Alternaria solani) | pest or weed control at 500 ppm (Puccinia triticina [2]) | pest or weed control at 500 ppm (Sphaerotheca fuliginea) | pest or weed control at 500 ppm (Puccinia triticina [3])

CCN(C)C=Nc1cc(C)c(Oc2nc(C3(c4ccc(Cl)cc4)CC3)ns2)cc1Cl [Compound 17, N′-[2-chloro-4-({3-[1-(4-chlorophenyl)cyclopropyl]-1,2,4-thiadiazol-5-yl}oxy)-5-methylphenyl]-N-ethyl-N-methylimidoformamide]
≥ 70%: pest or weed control at 100 ppm [1] | pest or weed control at 100 ppm (Alternaria solani) | pest or weed control at 500 ppm (Puccinia triticina [2]) | pest or weed control at 500 ppm (Sphaerotheca fuliginea) | pest or weed control at 500 ppm (Puccinia triticina [3])

CCN(C)/C=N/c1cc(C)c(Oc2nc(Cc3ccc(Cl)cc3)ns2)cc1Cl [Compound 18, N′-(2-chloro-4-{[3-(4-chlorobenzyl)-1,2,4-thiadiazol-5-yl]oxy}-5-methylphenyl)-N-ethyl-N-methylimidoformamide]
≥ 70%: pest or weed control at 100 ppm [1] | pest or weed control at 500 ppm (Puccinia triticina [2]) | pest or weed control at 500 ppm (Sphaerotheca fuliginea) | pest or weed control at 500 ppm (Puccinia triticina [3])

CCCN(C)/C=N/c1cc(C)c(Oc2nc(C(C)(C)C)ns2)cc1Cl [Compound 24, N′-{4-[(3-(tert-butyl)-1,2,4-thiadiazol-5-yl)oxy]-2-chloro-5-methylphenyl}-N-methyl-N-propylimidoformamide]
≥ 70%: pest or weed control at 100 ppm (Alternaria solani) | pest or weed control at 500 ppm (Puccinia triticina [2]) | pest or weed control at 500 ppm (Sphaerotheca fuliginea) | pest or weed control at 500 ppm (Puccinia triticina [3])

CCN(C)C=Nc1cc(C)c(Oc2nc(C3(C)CC3(Cl)Cl)ns2)cc1Cl (stereo not shown) [Compound 32, N′-(2-chloro-4-{[3-(2,2-dichloro-1-methylcyclopropyl)-1,2,4-thiadiazol-5-yl]oxy}-5-methylphenyl)-N-ethyl-N-methylimidoformamide]
≥ 70%: pest or weed control at 100 ppm [1] | pest or weed control at 100 ppm (Alternaria solani) | pest or weed control at 500 ppm (Puccinia triticina [2]) | pest or weed control at 500 ppm (Sphaerotheca fuliginea) | pest or weed control at 500 ppm (Puccinia triticina [3])

CCN(C)/C=N/c1cc(C)c(Oc2nc(Cc3ccc(Br)cc3)ns2)cc1Cl [Compound 33, N′-(4-{[3-(4-bromobenzyl)-1,2,4-thiadiazol-5-yl]oxy}-2-chloro-5-methylphenyl)-N-ethyl-N-methylimidoformamide]
≥ 70%: pest or weed control at 100 ppm (Alternaria solani) | pest or weed control at 500 ppm (Puccinia triticina [2]) | pest or weed control at 500 ppm (Sphaerotheca fuliginea) | pest or weed control at 500 ppm (Puccinia triticina [3])

CCN(C)/C=N/c1cc(C)c(Oc2nc(Cc3ccc(Cl)cc3Cl)ns2)cc1Cl [Compound 38, N′-(2-chloro-4-{[3-(2,4-dichlorobenzyl)-1,2,4-thiadiazol-5-yl]oxy}-5-methylphenyl)-N-ethyl-N-methylimidoformamide]
≥ 70%: pest or weed control at 100 ppm [1] | pest or weed control at 500 ppm (Puccinia triticina [2]) | pest or weed control at 500 ppm (Sphaerotheca fuliginea) | pest or weed control at 500 ppm (Puccinia triticina [3])

CCN(C)/C=N/c1cc(C)c(Oc2nc(Cc3ccc(F)cc3F)ns2)cc1Cl [Compound 40, N′-(2-chloro-4-{[3-(2,4-difluorobenzyl)-1,2,4-thiadiazol-5-yl]oxy}-5-methylphenyl)-N-ethyl-N-methylimidoformamide]
≥ 70%: pest or weed control at 100 ppm (Alternaria solani) | pest or weed control at 500 ppm (Puccinia triticina [2]) | pest or weed control at 500 ppm (Sphaerotheca fuliginea) | pest or weed control at 500 ppm (Puccinia triticina [3])
